This note sets out measurements from US20240336604A1 (THE UNITED STATES OF AMERICA, AS REPRESENTED BY THE …, priority 2021, published 2024).

Holding throughout (format): cell-based
Test [1] deals with T1, D3 DAR (Homo sapiens, UniProt P35462). Nature of the test: DiscoverX D3 DAR β-arrestin recruitment assay. On the set-up: host or cells: CHO. To be noted: for IC50: EC80 concentration of DA (30 nM), read-out: D3 DAR IC50; for Emax / D3 DAR Imax: Imax=maximum inhibition, EC80 DA (30 nM). The text has this:
A D3 DAR β-arrestin cell line from DiscoverX (Fremont, CA) was used as described in the protocol below (Table 2). A CHO cell line engineered to overexpress the D3 DAR fused with a small 42-amino acid fragment of β-galactosidase called ProLink™ and a fusion protein consisting of β-arrestin and a larger N-terminal deletion mutant of β-galactosidase was used (DiscoverX catalogue number 93-0579C2). When the D3 DAR is activated by dopamine, it stimulates binding of β-arrestin to ProLink-tagged D3 DARs, and the two complementary parts of β-galactosidase form a functional enzyme. When substrate (PathHunter® Detection reagent, DiscoverX 93-0001) is added, β-galactosidase hydrolyzes it and generates a chemiluminescent signal.
(In general: Recruitment of arrestin is a read-out of receptor activation apart from second messengers.)

In the next test the target is D2 DAR (Homo sapiens, UniProt P14416). As to the kind of experiment: DiscoverX D2 DAR β-arrestin recruitment assay. On the set-up: host or cells: CHO. To be noted: EC80 concentration of DA (1 μM). The text has this:
For a secondary-screen and selectivity assays, DAR PathHunter®-arrestin GPCR cell lines from DiscoverX (Fremont, CA) were used. In the D2 DAR PathHunter®-arrestin GPCR cell line, the D2 DAR is overexpressed and fused with a small 42-amino acid fragment of β-galactosidase called ProLink™ on a CHO cellular background expressing a fusion protein of β-arrestin and a larger N-terminal deletion mutant of β-galactosidase (“enzyme acceptor”). When the D2 DAR is activated by dopamine, it stimulates binding of β-arrestin to the ProLink-tagged DAR and the two complementary parts of β-galactosidase form a functional enzyme. When substrate (PathHunter™ Detection reagent) is added, β-galactosidase hydrolyzes it and generates a chemiluminescent signal.

Test [2] has as its target T1, D3 DAR. As to the kind of experiment: Go BRET activation assay, D3 DAR. Particulars: EC80 DA (30 nM); for Emax: 5 min, read-out: D3 Go BRET Imax. As for the experimental part:
Briefly, HEK293T cells transiently expressing either the D2 DAR or D3 DAR and GαoA-Rluc8, untagged-β1, and mVenus-γ2 were harvested with EBSS, plated in 96-well white plates at 20,000 cells/well in DPBS and incubated at RT for 45 min. […] BRET signal was determined by quantifying and calculating the ratio of the light emitted by mVenus (525 nm) over that emitted by RLuc8 (485 nm) using a PHERAstar FSX Microplate Reader (BMG Labtech).
On the technique in general: Bioluminescence resonance energy transfer reports proximity on the nanometre scale.

Where only a bound is given, the exact number is not on record here.

Chain of D2 DAR (P14416 whole entry, the tested form may be a part): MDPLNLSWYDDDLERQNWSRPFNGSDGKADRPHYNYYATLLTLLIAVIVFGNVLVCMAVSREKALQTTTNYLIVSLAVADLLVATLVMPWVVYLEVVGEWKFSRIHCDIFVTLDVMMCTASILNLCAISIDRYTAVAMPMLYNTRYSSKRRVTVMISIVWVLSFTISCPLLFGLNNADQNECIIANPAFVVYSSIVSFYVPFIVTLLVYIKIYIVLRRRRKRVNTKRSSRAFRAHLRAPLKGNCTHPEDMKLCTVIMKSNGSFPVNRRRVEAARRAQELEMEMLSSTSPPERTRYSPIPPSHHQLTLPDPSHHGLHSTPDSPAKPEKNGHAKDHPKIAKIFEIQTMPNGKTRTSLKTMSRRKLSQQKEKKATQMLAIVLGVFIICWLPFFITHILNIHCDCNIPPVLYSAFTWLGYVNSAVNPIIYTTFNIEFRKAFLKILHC
T1 sequence (P35462 whole entry, the tested form may be a part): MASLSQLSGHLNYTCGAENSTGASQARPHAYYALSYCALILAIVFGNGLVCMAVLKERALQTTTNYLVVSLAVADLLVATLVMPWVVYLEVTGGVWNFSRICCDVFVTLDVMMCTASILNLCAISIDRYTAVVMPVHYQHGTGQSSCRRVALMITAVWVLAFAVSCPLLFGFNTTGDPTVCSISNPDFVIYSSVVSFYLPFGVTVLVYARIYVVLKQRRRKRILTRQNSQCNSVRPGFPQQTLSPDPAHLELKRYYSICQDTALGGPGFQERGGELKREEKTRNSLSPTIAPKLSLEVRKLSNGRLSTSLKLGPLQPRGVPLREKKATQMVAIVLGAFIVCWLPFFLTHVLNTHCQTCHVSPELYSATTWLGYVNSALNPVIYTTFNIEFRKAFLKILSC

Broadly, the IC50 is the concentration that gives 50% inhibition. Regarding `Cc1[nH]c(C)c(S(=O)(=O)Nc2ccc(C3CC3)c(Cl)c2)c1C(=O)N1CCC(F)(F)C1` [compound 36, N-(3-chloro-4-cyclopropylphenyl)-4-(3,3-difluoropyrrolidine-1-carbonyl)-2,5-dimethyl-1H-pyrrole-3-sulfonamide], on D3 DAR [1], the IC50 was 10 to 50 µM and the Emax lay within 80 to 100%. Also, at D2 DAR, the “D2 DAR Imax” value is reported as “NA (“NA” indicates not active)” and the IC50 is over 100 µM. Further, at D3 DAR [2], the Emax lay in the range of 80 to 100% and the half-maximal inhibitory concentration (IC50) is 1 to 10 µM.

In the case of `Cc1ccc(NS(=O)(=O)c2c(C)[nH]c(C)c2C(=O)N2CCCC2C)cc1Cl` (centres unmarked) [compound 3], at D3 DAR [1], the IC50 fell in the range of 10 to 50 µM and the Emax lay in the range of 80 to 100%. On D2 DAR, the “D2 DAR Imax” value was “NA (“NA” indicates not active)” and the IC50 is over 100 µM. At D3 DAR [2], the Emax was over 100% and the IC50 was 1 to 10 µM.

As to `Cc1[nH]c(C)c(S(=O)(=O)Nc2ccc(C(C)C)cc2)c1C(=O)N1CCCC1` [compound 4], on D3 DAR [1], the IC50 was in the range of 10 to 50 µM and the Emax lay within 80 to 100%. At D2 DAR, the “D2 DAR Imax” value is given as “NA (“NA” indicates not active)” and the half-maximal inhibitory concentration (IC50) is over 100 µM. Further, on D3 DAR [2], the Emax is over 100% and the IC50 was 1 to 10 µM.

For `Cc1[nH]c(C)c(S(=O)(=O)Nc2ccc(C(F)(F)F)c(Cl)c2)c1C(=O)N1CCNCC1.Cl` [compound 20, N-(3-chloro-4-(trifluoromethyl)phenyl)-2,5-dimethyl-4-(piperazine-1-carbonyl)-1H-pyrrole-3-sulfonamide], on D3 DAR [1], the half-inhibitory concentration (IC50) fell in the range of 50 to 100 µM and the “D3 DAR Imax” value is “Curve Incomplete”. For the same compound, on D2 DAR, the “D2 DAR Imax” value is listed as “NA (“NA” indicates not active)” and the half-inhibitory concentration (IC50) is over 100 µM. At D3 DAR [2], this compound came in with an IC50 of over 50 µM.

`[2H]C1([2H])CCC([2H])([2H])N1C(=O)c1c(C)[nH]c(C)c1S(=O)(=O)Nc1ccc(C(F)(F)F)c(Cl)c1` [compound 23]: at D3 DAR [1], the IC50 was under 10 µM and the Emax lay in the range of 80 to 100%. For the same compound, at D2 DAR, the “D2 DAR Imax” value is recorded as “NA (“NA” indicates not active)” and the IC50 is over 100 µM. Besides, at D3 DAR [2], the Emax was over 100% and the IC50 was in the range of 1 to 10 µM.

Turning to `Cc1ccc(CNS(=O)(=O)c2c(C)[nH]c(C)c2C(=O)N2CCCC2)cc1Cl` [compound 9], at D3 DAR [1], the IC50 fell in the range of 50 to 100 µM and the “D3 DAR Imax” value was “Curve Incomplete”. Further, on D2 DAR, the “D2 DAR Imax” value is “NA (“NA” indicates not active)” and the IC50 was over 100 µM. Besides, at D3 DAR [2], the “D3 Go BRET Imax” value is listed as “NA (NA means not active)” and the IC50 was over 50 µM.

Regarding “N-(3-chloro-4-(trifluoromethyl)phenyl)-2,5-dimethyl-4-(morpholine-4-carbonyl)-1H-pyrrole-3-sulfonamide [compound 30]”, on D3 DAR [1], the IC50 was over 100 µM and the “D3 DAR Imax” value is “Curve Incomplete”. Moreover, at D2 DAR, the “D2 DAR Imax” value is listed as “NA (“NA” indicates not active)” and the IC50 is over 100 µM.

As to `Cc1[nH]c(C)c(S(=O)(=O)Nc2cc(Cl)c(C(F)(F)F)cc2Br)c1C(=O)N1CCC(F)(F)C1` [compound 41, N-(2-bromo-5-chloro-4-(trifluoromethyl)phenyl)-4-(3,3-difluoropyrrolidine-1-carbonyl)-2,5-dimethyl-1H-pyrrole-3-sulfonamide], at D3 DAR [1], the IC50 was under 10 µM and the Emax lay in the range of 80 to 100%. Also, on D2 DAR, the “D2 DAR Imax” value is recorded as “NA (“NA” indicates not active)” and the IC50 was over 100 µM.

`CCOC(=O)C1=NOC2(C1)C(=O)Nc1ccc(OC(F)(F)F)cc12` (centres unmarked) [compound 45]: at D3 DAR [1], the IC50 was 10 to 50 µM and the “D3 DAR Imax” value was “+ (A “+” is used to denote compounds with D3 DAR Imax (Imax=maximum inhibition) between 80% to 100%)”. Besides, on D2 DAR, the “D2 DAR Imax” value is recorded as “NA (“NA” indicates not active)” and the concentration for half-maximal inhibition (IC50) is over 100 µM.
